Legend:
mu opioid receptor (MOR) [1] = biological target: T1, mu opioid receptor (MOR) (Homo sapiens, UniProt P35372); assay: PathHunter β-arrestin recruitment assay, PAM mode with EC20 endomorphin-1; format: cell-based; settings: for EC50: read-out: β-arr. EC50
Procedure, shortened: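 Enzyme fragment complementation read-out: β-gal ED fragment fused to receptor, EA fused to β-arrestin, recruitment restoring β-gal activity detected by chemiluminescence. EC50 and percent maximal response derived for each compound.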

mu opioid receptor (MOR) [2] = biological target: T1, mu opioid receptor (MOR); assay: Hit Hunter cAMP signaling assay (adenylyl cyclase inhibition), PAM mode with EC20 endomorphin-1; format: cell-based
[3] = maximal response for β-arrestin recruitment
[4] = maximal response for adenylyl cyclase inhibition
[5] = adenylyl cyclase inhibition, read-out: cAMP EC50
[6] = cAMP EC50, adenylyl cyclase inhibition
[7] = maximal response, β-arrestin recruitment
[8] = maximal response, adenylyl cyclase inhibition

T1 sequence (P35372 whole entry, the tested form may be a part): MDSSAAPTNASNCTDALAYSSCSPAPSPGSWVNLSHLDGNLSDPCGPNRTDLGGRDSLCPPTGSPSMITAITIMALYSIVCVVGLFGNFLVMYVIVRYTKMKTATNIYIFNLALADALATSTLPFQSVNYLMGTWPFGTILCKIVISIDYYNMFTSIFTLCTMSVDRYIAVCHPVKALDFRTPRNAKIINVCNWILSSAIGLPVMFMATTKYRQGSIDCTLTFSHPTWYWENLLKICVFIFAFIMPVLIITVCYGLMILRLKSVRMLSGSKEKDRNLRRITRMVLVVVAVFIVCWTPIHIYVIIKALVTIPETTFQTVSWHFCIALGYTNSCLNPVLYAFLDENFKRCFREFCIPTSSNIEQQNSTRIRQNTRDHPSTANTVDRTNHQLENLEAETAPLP

Structure (SMILES)	β-arr Max. Resp. (mu opioid receptor (MOR) [1]; [3])	EC50 (mu opioid receptor (MOR) [1]; β-arrestin recruitment)	cAMP Max. Resp. (mu opioid receptor (MOR) [2]; [4])	EC50 (mu opioid receptor (MOR) [2]; [5])	EC50 (mu opioid receptor (MOR) [2]; [6])	β-arr Max. Resp. (mu opioid receptor (MOR) [1]; [7])	cAMP Max. Resp. (mu opioid receptor (MOR) [2]; [8])
Fc1ccc(C2CCCCN2c2nc(Cl)ncc2F)cc1Cl (single isomer, unassigned) [compound 11]	F (F represents a maximal response of > 60%)	< 0.7 µM	E (E represents a maximal response of 40-60%)	–	–	–	–
O=S(=O)(c1ccc(Cl)cc1)N1CCCCC1c1ccc(F)c(Br)c1 (single isomer, unassigned) [compound 56]	F (F represents a maximal response of > 60%)	> 2.1 µM	E (E represents a maximal response of 40-60%)	0.7 to 2.1 µM	–	–	–
O=S(=O)(c1ccc(Cl)cc1)N1CCCCC1c1ccc(Cl)c(C(F)(F)F)c1 (single isomer, unassigned) [compound 69]	F (F represents a maximal response of > 60%)	> 2.1 µM	D (D represents a maximal response of < 40%)	0.7 to 2.1 µM	–	–	–
Fc1cnc(Cl)nc1N1CCCCC1c1ccc(Cl)c(Br)c1 (single isomer, unassigned) [compound 125]	F (F represents a maximal response of > 60%)	< 0.7 µM	F (F represents a maximal response of > 60%)	–	< 0.7 µM	–	–
[2H]C1(c2cccc(C(F)(F)F)c2)C(F)CCCN1c1nc(Cl)ncc1F (single isomer, unassigned) [compound 208]	F (F represents a maximal response of > 60%)	> 2.1 µM	F (F represents a maximal response of > 60%)	–	–	–	–
[2H]C1(c2cccc(C(F)(F)F)c2)C(F)CCCN1c1nc(Cl)ncc1F (single isomer, unassigned) [compound 209]	F (F represents a maximal response of > 60%)	0.7 to 2.1 µM	D (D represents a maximal response of < 40%)	–	–	–	–
O=S(=O)(c1ccc(Cl)cc1)N1CCCCC1c1ccc(Cl)c(C(F)(F)F)c1 (single isomer, unassigned) [compound 220]	F (F represents a maximal response of > 60%)	> 2.1 µM	D (D represents a maximal response of < 40%)	0.7 to 2.1 µM	–	–	–
CC1CC(c2cccc(C(F)(F)F)n2)N(c2nc(Cl)ncc2F)C1 (single isomer, unassigned) [compound 221]	D (D represents a maximal response of < 40%)	> 2.1 µM	D (D represents a maximal response of < 40%)	> 2.1 µM	–	–	–
Fc1ccc(C2CCCCN2c2nc(Cl)ncc2F)cc1Cl (single isomer, unassigned) [compound 343]	D (D represents a maximal response of < 40%)	< 0.7 µM	D (D represents a maximal response of < 40%)	< 0.7 µM	–	–	–
Fc1cnc(Cl)nc1N1CCCCC1c1ccc(Cl)c(C(F)(F)F)c1 (single isomer, unassigned) [compound 345]	D (D represents a maximal response of < 40%)	< 0.7 µM	D (D represents a maximal response of < 40%)	–	< 0.7 µM	–	–
Fc1ccc(C2CCCCN2c2nc(Cl)ncc2F)cc1Cl (single isomer, unassigned) [compound 346]	D (D represents a maximal response of < 40%)	< 0.7 µM	D (D represents a maximal response of < 40%)	< 0.7 µM	–	–	–
Fc1cnc(Cl)nc1N1CCCCC1c1ccc(Cl)c(C(F)(F)F)c1 (single isomer, unassigned) [compound 348]	D (D represents a maximal response of < 40%)	< 0.7 µM	D (D represents a maximal response of < 40%)	–	–	–	–
Fc1cc(Cl)cc(C2CCCCN2c2nc(Cl)ncc2F)c1 (single isomer, unassigned) [compound 404]	D (D represents a maximal response of < 40%)	< 0.7 µM	D (D represents a maximal response of < 40%)	–	< 0.7 µM	–	–
Fc1cc(Cl)cc(C2CCCCN2c2nc(Cl)ncc2F)c1 (single isomer, unassigned) [compound 420]	–	< 0.7 µM	–	–	–	D (D represents a maximal response of < 40%)	D (D represents a maximal response of < 40%)
Fc1ccc(C2CCCCN2c2nc(Cl)ncc2F)cc1C(F)(F)F (single isomer, unassigned) [compound 422]	–	< 0.7 µM	–	–	< 0.7 µM	D (D represents a maximal response of < 40%)	D (D represents a maximal response of < 40%)
Fc1cc(C2CCCCN2c2nc(Cl)ncc2F)cc(C(F)(F)F)c1 (single isomer, unassigned) [compound 423]	–	< 0.7 µM	–	–	< 0.7 µM	D (D represents a maximal response of < 40%)	D (D represents a maximal response of < 40%)
O=S(=O)(c1ccc(Cl)cc1)N1CCCCC1c1ccc(F)c(Br)c1 (single isomer, unassigned) [compound 446]	–	> 2.1 µM	–	> 2.1 µM	–	F (F represents a maximal response of > 60%)	E (E represents a maximal response of 40-60%)
O=S(=O)(c1cccc(Cl)c1)N1CCCCC1c1cccc(C(F)(F)F)c1 (centres unmarked) [Compound 21]	F (F represents a maximal response of > 60%)	> 2.1 µM	F (F represents a maximal response of > 60%)	> 2.1 µM	–	–	–
O=S(=O)(Cc1ccc(Cl)cc1)N1CCCCC1c1cccc(C(F)(F)F)c1 (centres unmarked) [Compound 22]	F (F represents a maximal response of > 60%)	> 2.1 µM	D (D represents a maximal response of < 40%)	> 2.1 µM	–	–	–
O=S(=O)(Cc1ccc(Cl)c(Cl)c1)N1CCCCC1c1cccc(C(F)(F)F)c1 (centres unmarked) [Compound 23]	F (F represents a maximal response of > 60%)	> 2.1 µM	D (D represents a maximal response of < 40%)	> 2.1 µM	–	–	–
O=S(=O)(Cc1ccccc1Cl)N1CCCCC1c1cccc(C(F)(F)F)c1 (centres unmarked) [Compound 24]	F (F represents a maximal response of > 60%)	> 2.1 µM	D (D represents a maximal response of < 40%)	> 2.1 µM	–	–	–
O=S(=O)(c1ccc(Cl)cc1F)N1CCCCC1c1cccc(C(F)(F)F)c1 (centres unmarked) [Compound 25]	F (F represents a maximal response of > 60%)	> 2.1 µM	D (D represents a maximal response of < 40%)	> 2.1 µM	–	–	–
O=S(=O)(c1cc(F)ccc1F)N1CCCCC1c1cccc(C(F)(F)F)c1 (centres unmarked) [Compound 26]	F (F represents a maximal response of > 60%)	> 2.1 µM	D (D represents a maximal response of < 40%)	> 2.1 µM	–	–	–
Cc1cccc(S(=O)(=O)N2CCCCC2c2cccc(C(F)(F)F)c2)c1 (centres unmarked) [Compound 27]	F (F represents a maximal response of > 60%)	> 2.1 µM	E (E represents a maximal response of 40-60%)	> 2.1 µM	–	–	–
O=S(=O)(c1cccc(Cl)c1F)N1CCCCC1c1cccc(C(F)(F)F)c1 (centres unmarked) [Compound 28]	F (F represents a maximal response of > 60%)	0.7 to 2.1 µM	D (D represents a maximal response of < 40%)	0.7 to 2.1 µM	–	–	–
